Consider twelve molecules from ChEMBL document CHEMBL1201862, “PubChem BioAssay data set” (2004).

Some test systems named below: IGROV-1; HCC 2998; NCI-H522; SNB-19; HL-60; SK-MEL-28; A549; M14; NCI-H226; HCT-116; NCI-H23; SK-OV-3; DLD-1; CAKI-1; Malme-3M; SF-539; SR; HOP-92.
Test in all cases: DTP human tumour cell line panel, 48 h

The structures appear in SMILES notation.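 Briefly, cells in 96-well plates were exposed to five compound concentrations for 48 h, and endpoints were estimated by linear interpolation. At the GI50, growth is halved.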 Calls of active or inactive are those of the source. Rule as the data show it: active = GI50 up to about 1.1 µM and inactive = higher.

The GI50 is the concentration that inhibits growth by half. Consider `Cc1ccc(C(=O)N2CCCCC2)cc1/N=N/N(C)C`, for which the GI50 in the assay on IGROV-1, in the assay with HCC 2998, in the assay with NCI-H522, with SNB-19, in the assay on HL-60 and with SK-MEL-28 was > 100 µM (inactive) each time. In addition, the GI50 in the assay with A549 was > 100 µM (inactive); with M14, > 100 µM (inactive); in the assay with NCI-H226, > 100 µM (inactive); with HCT-116, > 100 µM (inactive); in the assay with NCI-H23, > 100 µM (inactive); with SK-OV-3, > 10 µM (inactive). In addition, the GI50 in the assay with DLD-1, in the assay with CAKI-1, in the assay with Malme-3M, in the assay on SF-539 and in the assay with SR was > 100 µM (inactive) each time.

With `Cc1nc(-n2nc(-c3ccccc3)cc2-c2ccccc2)sc1C(=O)/C=C/c1ccccc1`, the GI50 with IGROV-1 is 75.5 µM (inactive); in the assay on HCC 2998, > 100 µM (inactive); in the assay on NCI-H522 it was 33.1 µM (inactive); with SNB-19, > 100 µM (inactive); in the assay with HL-60, 60.4 µM (inactive); in the assay with SK-MEL-28, > 100 µM (inactive). In addition, the GI50 in the assay with A549 was 75.3 µM (inactive); in the assay with HOP-92, 70.1 µM (inactive); in the assay on NCI-H23, > 100 µM (inactive); in the assay with SK-OV-3, > 100 µM (inactive); in the assay with DLD-1, > 100 µM (inactive); in the assay with CAKI-1, 9.79 µM (inactive). Besides, the GI50 with Malme-3M and in the assay on SF-539 was > 100 µM (inactive) throughout.

In the case of `O=C(O)c1c[nH]cc1C(=O)O`, the GI50 with IGROV-1, in the assay with NCI-H522, in the assay with SNB-19, with HL-60, in the assay on A549 and in the assay with M14 was > 100 µM (inactive) throughout. Further, the GI50 with HOP-92, with NCI-H226, in the assay on HCT-116, with NCI-H23, in the assay with SK-OV-3 and in the assay with DLD-1 was > 100 µM (inactive) in each case. The GI50 in the assay with CAKI-1, in the assay with Malme-3M, in the assay on SF-539 and in the assay with SR was > 100 µM (inactive) in each case.

With `COC(=O)CCC(=O)Nc1cc(C)ccc1C`, the GI50 in the assay with IGROV-1, with HCC 2998, with NCI-H522, with SNB-19, with HL-60 and in the assay on SK-MEL-28 was > 100 µM (inactive) in each case. The GI50 in the assay on A549, in the assay with M14, in the assay on HOP-92, with NCI-H226, in the assay on HCT-116 and in the assay on NCI-H23 was > 100 µM (inactive) each time. Moreover, the GI50 in the assay with SK-OV-3, in the assay with DLD-1, with CAKI-1, with Malme-3M and with SF-539 was > 100 µM (inactive) each time.

As for `COc1cccc(NC(=S)Nn2c(C)nc3ccccc3c2=O)c1`, the GI50 in the assay with IGROV-1, in the assay on NCI-H522, with HL-60, with SK-MEL-28, with A549 and in the assay on M14 was > 100 µM (inactive) in each case. In addition, the GI50 in the assay on HOP-92 is > 100 µM (inactive); in the assay on NCI-H226, 80.2 µM (inactive); in the assay with HCT-116 it was > 100 µM (inactive); with NCI-H23, > 100 µM (inactive); in the assay on SK-OV-3 it was > 100 µM (inactive); with DLD-1 it was > 100 µM (inactive). For the same molecule, the GI50 in the assay with CAKI-1, with Malme-3M, in the assay on SF-539 and in the assay with SR was > 100 µM (inactive) throughout.

Take `NC(=O)N/N=C(\Cc1nc2ccc(C(=O)c3ccccc3)cc2nc1O)C(=O)Nc1ccc(Br)cc1`: the GI50 in the assay with IGROV-1, with HCC 2998, with NCI-H522, with SNB-19, with HL-60 and in the assay on SK-MEL-28 was > 100 µM (inactive) in each case. The GI50 is > 100 µM (inactive) in the assay on A549; > 100 µM (inactive) in the assay with M14; > 100 µM (inactive) with HOP-92; 86.3 µM (inactive) with NCI-H226; > 100 µM (inactive) with HCT-116; > 100 µM (inactive) in the assay with NCI-H23. In addition, the GI50 in the assay with SK-OV-3, in the assay with DLD-1, in the assay with CAKI-1, in the assay with Malme-3M, in the assay with SF-539 and with SR was > 100 µM (inactive) in each case.

For the molecule `CCN(CCCl)CCNc1c2ccccc2nc2ccc(OC)cc12`, the 50% growth inhibitory concentration (GI50) in the assay with IGROV-1 was 0.463 µM (active); in the assay with HCC 2998, 0.847 µM (active); in the assay on NCI-H522 it was 0.33 µM (active); in the assay on SNB-19, 1.41 µM (inactive); with HL-60, 0.199 µM (active); in the assay with SK-MEL-28 it was 1.52 µM (inactive). Further, the 50% growth inhibitory concentration (GI50) with A549 is 0.557 µM (active); in the assay on M14, 1.18 µM (inactive); with HOP-92, 0.822 µM (active); in the assay with NCI-H226, 0.6 µM (active); in the assay on HCT-116, 0.236 µM (active); in the assay on NCI-H23, 0.514 µM (active). The GI50 in the assay with SK-OV-3 was 1.35 µM (inactive); with DLD-1, 0.46 µM (active); in the assay on CAKI-1 it was 0.361 µM (active); in the assay on Malme-3M, 0.861 µM (active); with SF-539 it was 0.502 µM (active).

`Cc1cc2c(=O)n(-c3ccc(F)cc3)c(C)nc2c(C(=O)O)c1C`: the GI50 in the assay on IGROV-1, with HCC 2998, in the assay with HL-60, in the assay with SK-MEL-28, with A549 and with M14 was > 100 µM (inactive) each time. For the same molecule, the GI50 in the assay on HOP-92, with NCI-H226, in the assay with HCT-116, with NCI-H23, in the assay on SK-OV-3 and in the assay with DLD-1 was > 100 µM (inactive) throughout. Further, the GI50 in the assay with CAKI-1, in the assay with Malme-3M, in the assay on SF-539 and with SR was > 100 µM (inactive) in each case.

`CCN(CC)CCNC(=O)c1cccc2cc3ccccc3nc12`: the GI50 is 5.2 µM (inactive) in the assay with IGROV-1; 5.89 µM (inactive) in the assay on HCC 2998; 7.45 µM (inactive) in the assay with SNB-19; 4.8 µM (inactive) with HL-60; 9.71 µM (inactive) with SK-MEL-28; 3.56 µM (inactive) with A549. The GI50 in the assay with M14 is 5.9 µM (inactive); with HOP-92, 4.78 µM (inactive); in the assay with NCI-H226, 4.18 µM (inactive); in the assay with HCT-116 it was 3.52 µM (inactive); in the assay on SK-OV-3, 8.93 µM (inactive); with DLD-1 it was 3.57 µM (inactive). For the same molecule, the results for the GI50 in the assay with CAKI-1 and with SF-539 were 4.48 µM (inactive) and 4.49 µM (inactive), respectively.

On to `O=C(c1cc2ccccc2o1)N(Cc1ccccc1)c1ccccc1`, for which the GI50 was 35.5 µM (inactive) in the assay with IGROV-1; 23.4 µM (inactive) in the assay with HCC 2998; 16.4 µM (inactive) with NCI-H522; 35.9 µM (inactive) with SNB-19; 16.4 µM (inactive) in the assay with HL-60; 36.9 µM (inactive) in the assay on SK-MEL-28. Besides, the GI50 with A549 was 32.6 µM (inactive); with M14, 18.6 µM (inactive); in the assay with HOP-92, 20.7 µM (inactive); with NCI-H226 it was 15.6 µM (inactive); in the assay with HCT-116, 16.9 µM (inactive); with NCI-H23 it was 27 µM (inactive). Moreover, the GI50 in the assay on SK-OV-3 is 33.2 µM (inactive); in the assay on DLD-1, 22.8 µM (inactive); in the assay on CAKI-1, 19.5 µM (inactive); in the assay with Malme-3M, 23.7 µM (inactive); in the assay on SR it was 26.9 µM (inactive).

`OCc1ccc2[n+](c1)CCC1c3ccccc3NC21` (configuration not stated): the GI50 in the assay on IGROV-1, in the assay on HCC 2998, with NCI-H522, with SNB-19, in the assay with HL-60 and with SK-MEL-28 was > 300 µM (inactive) throughout. Besides, the GI50 was > 300 µM (inactive) in the assay on A549; 230 µM (inactive) in the assay with HOP-92; > 300 µM (inactive) in the assay on NCI-H226; > 300 µM (inactive) in the assay with HCT-116; > 300 µM (inactive) in the assay on NCI-H23; > 300 µM (inactive) in the assay on SK-OV-3. The GI50 was > 300 µM (inactive) in the assay on DLD-1; > 300 µM (inactive) with CAKI-1; 75.5 µM (inactive) in the assay on Malme-3M; > 300 µM (inactive) in the assay on SF-539; > 300 µM (inactive) in the assay with SR.

Regarding `NNC(=O)C(=O)N/N=C(\CCCC(=O)Nc1ccc(Cl)cc1)CC(=O)c1ccc(F)cc1`, the GI50 in the assay on IGROV-1, in the assay with HCC 2998, with SNB-19, in the assay with HL-60, in the assay on SK-MEL-28 and with A549 was > 100 µM (inactive) each time. Also, the GI50 with M14 is 51.3 µM (inactive); with HOP-92, > 100 µM (inactive); with NCI-H226, > 100 µM (inactive); in the assay with HCT-116 it was > 100 µM (inactive); in the assay on NCI-H23, > 100 µM (inactive); in the assay on DLD-1 it was > 100 µM (inactive). In addition, the GI50 in the assay with Malme-3M was > 100 µM (inactive).
